Test results from patent publication US20020045641A1, “Multiple heteroatom containing heterocyclic ring compounds substituted with carboxylic acids and isosteres thereof” (priority 1998, published 2002).

Test system: dopaminergic neurons
Experiment: MPTP Model of Parkinson's Disease in Mice
Format: in vivo
Conditions: recovery of TH-stained dopaminergic neurons in striatum; MPTP 30 mg/kg i.p. 5 days; test compound 4 mg/kg s.c., concurrent dosing paradigm
Description: MPTP lesioning of dopaminergic neurons in mice is used as an animal model of Parkinson's Disease. Four week old male CD1 white mice are dosed i.p. with 30 mg/kg of MPTP for 5 days. Test compounds (4 mg/kg), or vehicle, are administered s.c. along with the MPTP for 5 days, as well as for an additional […] following cessation of MPTP treatment. At 18 days following MPTP treatment, the animals are sacrificed and the striata dissected and perfusion-fixed. Immunostaining is performed on saggital and coronal brain sections using anti-tyrosine hydroxylase […] to quantitate survival and recovery of dopaminergic neurons. In animals treated with MPTP and vehicle, a substantial loss of functional dopaminergic terminals is observed as compared to non-lesioned animals. Lesioned animals receiving test compounds show a significant recovery of TH-stained dopaminergic neurons. This model presents quantitation for the recovery of TH-positive dopaminergic neurons in the striatum of animals receiving the compounds of the present invention. […]
Percent striatal innervation density was quantitated in brain sections with an anti-tyrosine hydroxylase immunoglobulin, which is indicative of functional dopaminergic neurons. […]

CCC(C)(C)C(=O)C(=O)N1CCS[C@H]1C(=O)O [Compound L, (2S) -1-(3,3-dimethyl-1,2-dioxopentyl) -3-thiazolidine-2-carboxylic acid]
% Recovery: 14.0%
